Experimental data as given in patent US11834391B2, “Pantothenamide analogues” (MMV MEDICINES FOR MALARIA VENTURE, priority 2018, dated 2023).
pIC50: −log10 of the molar value.

Legend:
[1] = system: P. falciparum strain Pf3D70087/N9; test: In vivo antimalarial activity in humanized mouse model for P. falciparum infection; set-up: species or system Plasmodium falciparum
Description: Reduction of existing parasitemia in vivo was investigated using a humanized mouse model for P. falciparum infection. Female NODscidIL2Rynull mice were engrafted by daily intravenous injection of 0.6 ml of human blood for 11 days. Subsequently, mice were infected with P. falciparum strain Pf3D70087/N9 by injecting 2.10^7 parasites in a volume of 0.2 ml. Four days post infection, mice were treated with a single 50 mg/kg dose of test compound. To this end, compounds were formulated in 70% Tween®-80 (d=1.08g/ml) and 30% ethanol (d=0.81g/ml), followed by a 10-fold dilution in H2O and administered by oral gavage. Parasitemia was followed by daily collection of 2 μl tail blood. The hematocrit was determined by fluorescence-activated cell sorting (FACS) and parasitemia by microscopy on >10,000 red blood cells. […] The compounds indicated at the legend were dosed as a single oral dose of 50 mg/kg at day 4 post infection (indicated by the arrow) and parasitemia was followed for another three days. The data shown in FIG. 1 indicate that all pantothenamide analogues tested show a dramatic reduction in blood stage parasitemia at a single oral dose of 50 mg/kg.

[2] = system: P. falciparum NF54 gametocytes; test: Gametocyte viability assay (ONE-Glo luminescence); assay type: cell-based; details: Plasmodium falciparum; P. falciparum NF54 gametocytes (predominantly stage IV), 72 h incubation, 10% human serum; average of at least two replicate experiments; read-out: antimalarial IC50 gametocytes
Description: (§1) Plasmodium falciparum strain NF54 was cultured in Roswell Park Memorial Institute (RPMI) 1640 medium supplemented with 25 mM NaHCO3, 10% human type A serum and 5% (v/v) human type 0 red blood cells (Sanquin, the Netherlands). Replication assays for asexual blood-stage parasites were performed by diluting parasites in RPMI1640 medium with 10% human serum to a parasitemia of 0.83% and a hematocrit of 3%. 30 μl of diluted parasites were combined with 30 μl of compound serially diluted in DMSO and RPMI1640 medium to reach a final DMSO concentration of 0.1% in a total assay volume of 60 μL. Following a 72 h incubation at 37 ° C., 3% O2, 4% CO2, 30 μL of diluted SYBR® Green reagent was added according to the instructions of the manufacturer (Life Technologies) and fluorescence intensity was quantified using a Biotek Synergy® 2 plate reader. Gametocyte viability assays were initiated by inoculating a culture flask with 1% asexual blood-stage parasites in 5% haematocrit in RPMI1640 medium with 10% human serum. From day 4 to day 9 after inoculation, cultures were treated with 50 mM N-acetylglucosamine to eliminate asexual blood-stage parasites. At day 11 post inoculation, gametocytes (predominantly stage IV) were isolated by Percoll® density gradient centrifugation. Gametocytes were seeded at a density of 5,000 cells/well in a 384 well plate and combined with compound diluted in DMSO and subsequently in RPMI1640 medium to reach a final DMSO concentration of 0.1% in a volume of 60 μL RPMI1640 medium with 10% human serum. Following a 72 h incubation at 37 ° C., 3% O2, 4% CO2, 30 μL of ONE-Glo® reagent (Promega) was added and luminescence was quantified using a Biotek Synergy 2 reader. IC50 values were derived by fitting a four parameter logistic regression model to the data using least squares to find the best fit.

[3] = system: P. falciparum NF54 asexual blood stage parasites; test: Replication assay for asexual blood-stage parasites (SYBR Green); assay type: cell-based; details: Plasmodium falciparum; P. falciparum NF54, 72 h incubation, 10% human serum; average of at least two replicate experiments; read-out: antimalarial IC50 asexual blood stages
Description: as §1

[4] = Metabolic stability in human primary hepatocytes (hepatocyte relay assay); assay type: in vitro ADME; details: primary hepatocytes (hepatocyte relay assay), human primary hepatocytes, relay assay, 10 μM, average of two replicate experiments; for half-life at 10 μM: read-out: T½ average
Description: (§2) Metabolic stability of compounds of the invention was assessed in a hepatocyte relay assay. Human primary hepatocytes (Xenotech) were cultured in collagen coated 96-well plates in Williams E (Gibco® 32551087) supplemented with 1% PenStrep (Gibco 15140-122), 1% Fungizone® (Gibco 15290026), 10% heat-inactivated fetal bovine serum (hiFBS) (Gibco 10270-106), 0.1 IU/ml insulin (Sigma 12643) and 7μM hydrocortisone hemisuccinate (Sigma H2270) at 37° C. and 5% CO2. Test compounds were added to a final concentration of 10 μM in 0.1 DMSO. Every 24 hours, the cell supernatant was transferred to freshly plated, metabolically full active cells. At regular time intervals, aliquots of supernatants were frozen for future analysis. At the end of the incubation, all samples were thawed and compound levels in time were determined by LC-MS analyses. Data were analysed by linear regression.

[5] = system: Human primary hepatocytes; test: as above; assay type: in vitro ADME; details: comparative example
Description: as §2

[6] = female NODscidIL2Rγnull mice, single oral dose 50 mg/kg at day 4 post infection
[7] = same protocol as example 16, relay assay

| pIC50 [2] | pIC50 [3] | hepatocyte CLint at 10 μM [4] [µL/min/1e6 cells] | half-life at 10 μM [4] [h] | metabolic stability compared with the compounds of the invention (in words) [5] | Metabolic stability in human hepatocytes Clint [5, 7] [μl/min/10^6 cells] | Metabolic stability in human hepatocytes T½ [5, 7] [h] | SMILES | In vivo efficacy log reduction in parasitemia in Pf SCID mouse at 50 mg/kg p.o. 1 × QD [1, 6] | in vivo efficacy compared with the compounds of the invention (in words) ([1]; comparative example) | In vivo efficacy log reduction in parasitemia in Pf SCID mouse at 50 mg/kg p.o. 1 × QD ([1]; comparative example, same protocol as example 17, female NODscidIL2Rγnull mice) |
| --- | --- | --- | --- | --- | --- | --- | --- | --- | --- | --- |
| 8.10 | 8.62 | 0.4 | 59.4 |  |  |  | C[C@@H](CNC(=O)[C@H](O)C(C)(C)CO)NC(=O)c1cc(F)c(F)cc1F [Compound A1, (2R)-2,4-dihydroxy-3,3-dimethyl-N-[(2S)-2-[(2,4,5-trifluorophenyl)formamido]propyl]butanamide] | >3 |  |  |
| 7.67 | 8.21 | 0.2 | 107 |  |  |  | C[C@@H](CNC(=O)[C@H](O)C(C)(C)CO)NC(=O)c1cc(C#N)ccc1F [Compound B1, (2R)-N-[(2S)-2-[(5-cyano-2-fluorophenyl)formamido]propyl]-2,4-dihydroxy-3,3-dimethylbutanamide] | 2.4 |  |  |
| 8.66 | 8.13 | 0.3 | 84.1 |  |  |  | C[C@@H](CNC(=O)[C@H](O)C(C)(C)CO)NC(=O)c1cccc(C#N)c1 [Compound C1, (2R)-N-[(2S)-2-[(3-cyanophenyl)formamido]propyl]-2,4-dihydroxy-3,3-dimethylbutanamide] | >3 |  |  |
| 9.40 | 8.64 |  |  |  |  |  | C[C@@H](CNC(=O)[C@H](O)C(C)(C)CO)NC(=O)c1cc(Cl)c(F)cc1F [Compound D1, (2R)-N-[(2S)-2-[(5-chloro-2,4-difluorophenyl)formamido]propyl]-2,4-dihydroxy-3,3-dimethylbutanamide] |  |  |  |
| 8.70 | 8.72 | 0.5 | 42.2 |  |  |  | C[C@@H](CNC(=O)[C@H](O)C(C)(C)CO)NC(=O)c1cccc(F)c1 [Compound E1, (2R)-N-[(2S)-2-[(3-fluorophenyl)formamido]propyl]-2,4-dihydroxy-3,3-dimethylbutanamide] | >3 |  |  |
| 9.40 | 8.68 |  |  |  |  |  | C[C@@H](CNC(=O)[C@H](O)C(C)(C)CO)NC(=O)c1cccc(Cl)c1 [Compound F1, (2R)-N-[(2S)-2-[(3-chlorophenyl)formamido]propyl]-2,4-dihydroxy-3,3-dimethylbutanamide] |  |  |  |
| 9.70 | 8.47 |  |  |  |  |  | C[C@@H](CNC(=O)[C@H](O)C(C)(C)CO)NC(=O)c1ccc(F)c(Cl)c1 [Compound G1, (2R)-N-[(2S)-2-[(3-chloro-4-fluorophenyl)formamido]propyl]-2,4-dihydroxy-3,3-dimethylbutanamide] |  |  |  |
|  |  |  |  | substantially lower | 0.8 | 29.403 | C[C@H](CNC(=O)[C@@H](O)C(C)(C)CO)NC(=O)CCc1ccccc1F [MMV689258, reference compound] |  | substantially less efficacious | 1.5 |
